Results published in patent US12497399B2, “Fluorinated integrin antagonists” (OcuTerra Therapeutics, Inc., priority 2013, dated 2025).

Tests used:
[1] = target: T1, αv integrin (Homo sapiens, UniProt P06756); experiment: Cell adhesion assay: HMVEC adhesion to vitronectin coated plates; assay type: cell-based; details: human dermal microvascular endothelial cells, 1.5 h at 37° C., read-out: IC50 to block adhesion of HMVEC to vitronectin
T1 construct: three primary cell cultures; host or cells: HMVEC primary human dermal microvascular endothelial cells, passages 9-14
Method: (§1) The ability of compounds to block adhesion of three primary cell cultures: human dermal microvascular endothelial (HMVEC), rat lung microvascular endothelial (RLMVEC), and rabbit aortic endothelial (RAEC) cells, to vitronectin coated plates was determined using the following procedure.
(§2) Adhesion plates preparation. 96-well plates were coated with vitronectin in PBS, pH 7.4 by incubating 50 μL of the solution (10 μg/ml) for 1.5 h at room temperature or overnight at 4° C. The plates then were blocked with 1% BSA in PBS (30 min at room temperature) and washed with PBS.
(§3) Cell culturing and loading. HMVEC cells (passages (p)9-14) (from Lonza, Allendale, NJ) RLMVEC cells (p4-14) (from Vec Technology, Rensselaer, NY) and RAEC cells (p4-14) (from CellBiologics, Chicago, IL) were used for the compound testing. Cells were grown in T175 tissue culture flasks and dislodged by gentle 3 min treatment with Accutase (Life Technologies). After washing, the cells in suspension in RPMI-1640 (Life Technologies) were loaded with calcein-AM (5 μM) (Life Technologies) for 30 min at 37° C. and re-suspended into RPMI w/o phenol red medium containing 10% FBS.
(§4) Adhesion assay. The cell suspension was aliquoted into the wells at a density of 1.0×10^5 cells/well (RLMVEC) and 5.0×10^4 (HMVEC, and RAEC). The test compounds are added at the same time with the cells. The plates are incubated for 1.5 h at 37° C. […] The wash was performed by 2 cycles of aspiration of the supernatant and addition of 100 μL of the pre-warmed fresh DPBS (Life Technologies). A fluorescence of the remaining cells is measured using multimode plate reader (Victor 2V, PerkinElmer) at an excitation/emission wavelengths of 485/535 nm. The compounds were tested starting with maximal concentration of 1 μM with half-log dilution schedule. IC50 values were calculated with Prism 5 (GraphPad, CA) by fixing the bottom of the curves to a value of blank for empty wells fluorescence.

[2] = system: αv integrin; experiment: Cell adhesion assay: RLMVEC adhesion to vitronectin coated plates; assay type: cell-based; details: rat lung microvascular endothelial cells, 1.5 h at 37° C., read-out: IC50 to block adhesion of RLMVEC to vitronectin
Method: as §1, §2, §3, §4

[3] = system: αv integrin; experiment: Cell adhesion assay: RAEC adhesion to vitronectin coated plates; assay type: cell-based; details: rabbit aortic endothelial cells, 1.5 h at 37° C., read-out: IC50 to block adhesion of RAEC to vitronectin
Method: as §1, §2, §3, §4

[4] = system: chick chorioallantoic membrane (CAM); experiment: Chick chorioallantoic membrane (CAM) anti-angiogenic assay; assay type: in vivo; details: gelatin sponge graft with test compound and 50 ng VEGF; FIG. 1
Method: CAM surfaces were grafted with gelatin sponges impregnated with the concentrations of test compounds and 50 ng VEGF dissolved in PBS. Untreated CAM received only VEGF and PBS. Error bars represent SEM, N=5, P values for the treated groups were calculated by comparing with the untreated group (*p<0.05, **p<0.01, ***p<0.001). Test Substance Preparation: Test samples and standards were dissolved in PBS and sterilized by passing through a syringe filter (0.22 μm). hVEGF(SIGMA) 50 ng/μl was prepared in sterile PBS. Grafting: Gelatin sponge (Abogel) was cut in approximately 2 mm^3 pieces and loaded with required test substance or PBS and VEGF. The graft was placed on the CAM. Eggs: Fertile hen eggs were procured from a hatchery and were cleaned and decontaminated using alcohol. 1 ml of albumin was removed using a syringe and incubated for 8 days. Grafts were placed on developing CAMs and further incubated to day 12. On day 12, CAMs were fixed with 4% formaldehyde in PBS, dissected and imaged. Imaging: Fixed CAMs were imaged under constant illumination and magnification under a stereomicroscope fitted with a digital camera (CANON). Image analysis: Images were analyzed on MS PowerPoint keeping the image size constant. A ring was drawn around the graft and the size was kept constant. Blood vessels crossing the ring were counted for each test group.

[5] = Distribution in plasma, aqueous humor, vitreous humor and retina after topical ocular administration; assay type: in vivo, Dutch Belted rabbits; details: 50 μL/eye, 1.0-2.5 mg/mL, 0.5 or 1.0 and 8 hours, FIGS. 2, 3, 4
Method: The plasma concentrations and ocular distribution (aqueous humor, vitreous humor, and retina) of Compounds A1, A2, and A3 were determined following topical ocular administration in Dutch Belted rabbits. […] Aqueous humor, vitreous humor, and retina were collected from each eye at each time point post-dose. Also, weights were recorded. Plasma and ocular sample concentrations of the compounds were determined by LC-MS/MS.
Animal Dosing: The exposure of compounds A1, A2, and A3 was evaluated in Dutch Belted rabbits. The study was not blinded. Each compound was dosed as n=3/time point for a total of nine rabbits. Rabbits were housed one per cage. Animals were not fasted, and food and water were supplied ad libitum.
Animals were anesthetized following the 13IA5 IACUC protocol for the dosing. Each rabbit received a bolus dose of test formulation via topical ocular administration into both eyes at time zero on the day of dosing. Plasma and ocular samples were collected at pre-determined time points. Animals for the 30-minute and 1-hour time points were anesthetized for the entire duration of the study. The animals for the 8-hour time point were recovered after dosing and then euthanized for sampling purposes.
At each time point, approximately 0.5 mL of blood was collected and placed into chilled Na-heparin tubes containing citric acid. Blood samples were centrifuged at a speed of 3,000 g for 5 minutes to obtain plasma as quickly as possible. Samples were stored frozen at −80° C. until analysis. Animals were euthanized per the 13IA5 IACUC protocol and both eyes were enucleated immediately. Following enucleation, each eye was rinsed with PBS. Ocular samples from both eyes of each animal were collected and weights were recorded. All the samples were frozen immediately on dry ice, and stored at −60 to −80° C. for analysis.
Analysis of Plasma and Ocular Samples: An LC-MS/MS method was developed for the determination of Compounds A1, A2, and A3 in rabbit plasma and ocular samples.

[6] = system: laser-induced choroidal neovascularization; experiment: Laser-induced choroidal neovascularization (CNV) model; assay type: in vivo, Dutch Belted rabbits; details: twice daily topical administration, 50 μL; fluorescein angiography day 35; FIG. 5
Method: Healthy male animals weighing between 1.5 and 2.0 kg were used in these studies. Animals were weighed prior to dosing and at euthanasia, and more often if needed. Baseline fundus photography and fluorescein angiography was performed on each animal prior to CNV induction.
Animals were anesthetized with an intramuscular injection of ketamine hydrochloride (20 mg/kg) and xylazine (2 mg/kg) for CNV induction, fundus photography, fluorescein angiography, and intravitreal (IVT) injections. Rabbits were maintained on isoflurane (approximatelyl to 3%) in oxygen (approximately 1 to 2 L/min) as necessary. One drop of topical proparacaine hydrochloride anesthetic (0.5%) was placed in each eye before procedures. Additional topical ocular anesthesia was utilized during the procedure if needed.
CNV was induced by laser photocoagulation treatment. […]
Clinical ophthalmic exams (slit-lamp biomicroscopy and indirect ophthalmoscopy), fundus photography, and fluorescein angiography were performed at baseline and then weekly for up to 6 weeks post-induction. Exams were scored using the McDonald-Shadduck Score System. […]
At the conclusion of the study, animals were euthanized per the 13C232Q3 IACUC protocol and both eyes enucleated immediately. […] Ocular samples (aqueous humor, vitreous humor retina and choroid) from both eyes of each animal were collected and weights were recorded. […]

T1 sequence (P06756 31-1048): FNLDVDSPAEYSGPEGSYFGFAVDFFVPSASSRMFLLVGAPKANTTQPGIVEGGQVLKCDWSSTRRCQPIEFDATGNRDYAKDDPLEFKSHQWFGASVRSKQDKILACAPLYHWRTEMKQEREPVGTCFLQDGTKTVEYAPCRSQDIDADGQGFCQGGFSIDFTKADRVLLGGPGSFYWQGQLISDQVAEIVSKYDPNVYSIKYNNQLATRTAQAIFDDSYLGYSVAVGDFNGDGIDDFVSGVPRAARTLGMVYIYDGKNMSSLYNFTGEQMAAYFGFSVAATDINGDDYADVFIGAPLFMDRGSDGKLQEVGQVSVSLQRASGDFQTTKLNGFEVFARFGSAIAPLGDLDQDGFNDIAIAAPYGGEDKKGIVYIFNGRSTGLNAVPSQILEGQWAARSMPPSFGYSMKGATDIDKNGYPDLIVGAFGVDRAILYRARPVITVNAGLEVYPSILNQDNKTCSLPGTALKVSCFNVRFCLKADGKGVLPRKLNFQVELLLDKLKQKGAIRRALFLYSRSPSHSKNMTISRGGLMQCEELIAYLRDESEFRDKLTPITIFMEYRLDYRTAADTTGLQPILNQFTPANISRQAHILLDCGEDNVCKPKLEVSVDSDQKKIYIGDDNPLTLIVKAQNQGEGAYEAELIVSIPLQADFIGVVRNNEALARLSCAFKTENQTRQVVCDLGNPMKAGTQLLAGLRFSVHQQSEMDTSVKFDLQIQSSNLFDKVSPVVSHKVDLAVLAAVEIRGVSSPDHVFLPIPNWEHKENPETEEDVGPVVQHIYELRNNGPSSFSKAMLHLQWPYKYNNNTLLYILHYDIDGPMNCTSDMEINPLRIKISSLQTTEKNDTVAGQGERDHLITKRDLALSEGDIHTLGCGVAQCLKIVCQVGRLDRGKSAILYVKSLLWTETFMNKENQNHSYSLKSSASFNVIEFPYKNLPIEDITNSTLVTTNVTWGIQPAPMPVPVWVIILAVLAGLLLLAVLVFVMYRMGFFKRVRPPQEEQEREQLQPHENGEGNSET

IC50 [1] [nM] | IC50 [2] [nM] | IC50 [3] [nM] | distribution to the retina [5] | Structure (SMILES) | anti-angiogenic activity: number of blood vessels vs untreated control [4] | reduction of laser-induced choroidal neovascularization vs vehicle control [6]
9.4 | 31 | 8.4 | efficiently distributed to the retina | O=C(O)C[C@@H](c1ccc(OC(F)F)nc1)N1CCN(CCCc2ccc3c(n2)NCCC3)C1=O [Compound A1, (S)-3-(6-(difluoromethoxy)pyridin-3-yl)-3-(2-oxo-3-(3-(5,6,7,8-tetrahydro-1,8-naphthyridin-2-yl)propyl)imidazolidin-1-yl)propanoic acid] | significantly decreases the number of blood vessels | effectively reduced laser-induced choroidal neovascularization
160 | 68 | 16 | efficiently distributed to the retina | O=C(O)CC(CCCCCCc1ccc2c(n1)NCCC2)c1cnc(C(F)(F)F)nc1 (stereo not shown) [Compound A2, 9-(5,6,7,8-tetrahydro-1,8-naphthyridin-2-yl)-3-(2-(trifluoromethyl)pyrimidin-5-yl)nonanoic Acid] | significantly decreases the number of blood vessels | effectively reduced laser-induced choroidal neovascularization
620 | 230 | 59 | efficiently distributed to the retina | O=C(O)CC(CCCCCCc1ccc2c(n1)NCCC2)c1ccc(OC(F)F)nc1 (stereo not shown) [Compound A3, 3-(6-(difluoromethoxy)pyridin-3-yl)-9-(5,6,7,8-tetrahydro-1,8-naphthyridin-2-yl)nonanoic Acid] |  | 
42 | 32 | 8.5 |  | O=C(O)CC(CCCCCCc1ccc2c(n1)NCCC2)c1cnc2ccc(F)cc2c1 (stereo not shown) [Compound A4, 3-(6-fluoroquinolin-3-yl)-9-(5,6,7,8-tetrahydro-1,8-naphthyridin-2-yl)nonanoic Acid] |  | 
250 | 37 | 20 |  | O=C(O)CC(CCCCCCc1ccc2c(n1)NCCC2)c1cnc2cc(F)ccc2c1 (stereo not shown) [Compound A5, 3-(7-fluoroquinolin-3-yl)-9-(5,6,7,8-tetrahydro-1,8-naphthyridin-2-yl)nonanoic Acid] |  | 
44 | 5.5 | 44 |  | O=C(O)CC(CCCCCCc1ccc2c(n1)NCCC2)c1cnc2cc(F)c(F)cc2c1 (stereo not shown) [Compound A6, 3-(6,7-difluoroquinolin-3-yl)-9-(5,6,7,8-tetrahydro-1,8-naphthyridin-2-yl)nonanoic Acid] |  | 
130 | 400 | 210 |  | O=C(O)CC(CCCCCCc1ccc2c(n1)NCCC2)c1cnc2cc(C(F)(F)F)ccc2c1 (stereo not shown) [Compound A7, 9-(5,6,7,8-tetrahydro-1,8-naphthyridin-2-yl)-3-(7-(trifluoromethyl)quinolin-3-yl)nonanoic Acid] |  | 
